Tests used:
Format in all cases: physicochemical
[1] = Solubility of the compound in phosphate buffer
[2] = Metabolic stability of the compound assessed as thiol group addition after 48 hrs in presence of glutathione
[3] = Stability in phosphate buffer after 24 hrs
[4] = Metabolic stability of the compound assessed as thiol group decomposition after 48 hrs in presence of glutathione

For `O=C(O)[C@H]1CCCC[C@H]1C(=O)N1CCc2ccccc2[C@H]1CN1C(=O)c2ccccc2C1=O`, the solubility [1] was over 100 µM, the Stability [2] was “Stable” and the Stability [3] was “Stable”. The Stability [4] was “Stable”.
